According to patent US20030118627A1 (DABUR RESEARCH FOUNDATION, priority 2001, published 2003):

Assays:
Hep2 = assay: MTT cytotoxicity assay, Hep2 larynx; assay type: cell-based; conditions: Homo sapiens, HEp-2, 24 h, read-out: ED50 values of cytotoxicity
Experimental: (§1) Briefly, a […] MTT cytotoxicity assay was performed, which is based on the principle of uptake of MTT (3-(4,5-dimethylthiazol-2-yl)-2,5-diphenyl tetrazolium bromide), a tetrazolium salt, by the metabolically active cells where it is metabolized by active mitochondria into a blue colored formazan product that is read spectrophoto-metrically. MTT was dissolved in phosphate buffered saline with a pH of 7.4 to obtain an MTT concentration of 5 mg/ml; the resulting mixture was filtered through a 0.22 micron filter to sterilize and remove a small amount of insoluble residue. For each type of tumor cell, 20,000 to 50,000 cells were seeded in a 96-well culture plate and incubated with the combination in a CO2 incubator for 24 hours. […] The assay was terminated after 24 hours by adding 100 ug (20 ul) of MTT to each well, then incubating for additional one hour, and finally adding 50 ul of 10% SDS-0.01N HCl to each well to lyse the cells and dissolve formazan. After incubating for one hour, the plate was read spectrophotometrically at 540 nm and the percentage cytotoxicity calculated.

Swiss albino mice = conditions: both, mouse, in vivo, po, 15 days
Experimental: Acute toxicity studies were performed using the oral route of administration.
A batch of 5 female and 5 male mice each was administered the test substance by oral route. […] Another batch of 5 female and 5 male served as control.
Observations were made three times on the day of dosing and twice daily thereafter for the remainder of 14 days or until reversible toxic signs or symptoms subsided. All gross visible toxic signs and symptoms were recorded. Body weights were recorded prior to dosing and weekly thereafter.

KB = assay: MTT cytotoxicity assay, KB oral; assay type: cell-based; conditions: Homo sapiens, 24 h, read-out: ED50 values of cytotoxicity
Experimental: as §1

L132 = assay: MTT cytotoxicity assay, L132 lung; assay type: cell-based; conditions: Homo sapiens; for cytotoxicity at 1000 µM: 1.0 mM; for cytotoxicity at 1000 µM / cytotoxicity at 2500 µM / cytotoxicity at 4000 µM / cytotoxicity at 5000 µM / cytotoxicity at 10000 µM: read-out: Percent cytotoxicity; for cytotoxicity at 2500 µM: 2.5 mM; for cytotoxicity at 4000 µM: 4 mM; for cytotoxicity at 5000 µM: 5 mM; for cytotoxicity at 10000 µM: 10 mM; for IC50: 24 h, read-out: ED50 values of cytotoxicity
Experimental: as §1

293 = assay: MTT cytotoxicity assay, 293 kidney; assay type: cell-based; conditions: Homo sapiens, HEK293, 24 h, read-out: ED50 values of cytotoxicity
Experimental: as §1

INT 407 = assay: MTT cytotoxicity assay, INT 407 intestine; assay type: cell-based; conditions: Homo sapiens, 24 h, read-out: ED50 values of cytotoxicity
Experimental: as §1

PA 1 = assay: MTT cytotoxicity assay, PA 1 ovary; assay type: cell-based; conditions: Homo sapiens; for IC50: 24 h, PA 1 Ovarian, read-out: ED50 values of cytotoxicity; for cytotoxicity at 2500 µM: 2.5 mM; for cytotoxicity at 4000 µM: 4 mM; for cytotoxicity at 5000 µM: 5 mM; for cytotoxicity at 10000 µM: 10 mM
Experimental: as §1

MCF7 = assay: MTT cytotoxicity assay, MCF7 breast; assay type: cell-based; conditions: Homo sapiens; for IC50: MCF7, 24 h, MCF 7 Breast, read-out: ED50 values of cytotoxicity; for cytotoxicity at 1000 µM / cytotoxicity at 2500 µM / cytotoxicity at 4000 µM / cytotoxicity at 5000 µM / cytotoxicity at 10000 µM: MCF7 breast, read-out: Percent cytotoxicity; for cytotoxicity at 1000 µM: 1.0 mM; for cytotoxicity at 2500 µM: 2.5 mM; for cytotoxicity at 4000 µM: 4 mM; for cytotoxicity at 5000 µM: 5 mM; for cytotoxicity at 10000 µM: 10 mM
Experimental: as §1

U87MG = assay: MTT cytotoxicity assay, U87MG glioblastoma; assay type: cell-based; conditions: Homo sapiens, U-87 MG, 24 h, read-out: ED50 values of cytotoxicity
Experimental: as §1

Miapaca2 = assay: MTT cytotoxicity assay, Miapaca2 pancreas; assay type: cell-based; conditions: Homo sapiens; for cytotoxicity at 1000 µM: MIA PaCa-2, 1.0 mM; for cytotoxicity at 1000 µM / cytotoxicity at 2500 µM / cytotoxicity at 4000 µM / cytotoxicity at 5000 µM / cytotoxicity at 10000 µM: read-out: Percent cytotoxicity; for cytotoxicity at 2500 µM: MIA PaCa-2, 2.5 mM; for cytotoxicity at 4000 µM: MIA PaCa-2, 4 mM; for cytotoxicity at 5000 µM: MIA PaCa-2, 5 mM; for cytotoxicity at 10000 µM: MIA PaCa-2, 10 mM; for IC50: MIA PaCa-2, 24 h, read-out: ED50 values of cytotoxicity
Experimental: as §1

MOLT 4 = assay: MTT cytotoxicity assay, MOLT 4 leukemia; assay type: cell-based; conditions: Homo sapiens; for IC50: 24 h, Molt 4 Leukemia, read-out: ED50 values of cytotoxicity; for cytotoxicity at 1000 µM / cytotoxicity at 2500 µM / cytotoxicity at 4000 µM / cytotoxicity at 5000 µM / cytotoxicity at 10000 µM: MOLT 4 Leukemia, read-out: Percent cytotoxicity; for cytotoxicity at 1000 µM: 1.0 mM; for cytotoxicity at 2500 µM: 2.5 mM; for cytotoxicity at 4000 µM: 4 mM; for cytotoxicity at 5000 µM: 5 mM; for cytotoxicity at 10000 µM: 10 mM
Experimental: as §1

PTC = assay: MTT cytotoxicity assay, PTC colon; assay type: cell-based; conditions: Homo sapiens; for cytotoxicity at 1000 µM: 1.0 mM; for cytotoxicity at 1000 µM / cytotoxicity at 2500 µM / cytotoxicity at 4000 µM / cytotoxicity at 5000 µM / cytotoxicity at 10000 µM: read-out: Percent cytotoxicity; for cytotoxicity at 2500 µM: 2.5 mM; for cytotoxicity at 4000 µM: 4 mM; for cytotoxicity at 5000 µM: 5 mM; for cytotoxicity at 10000 µM: 10 mM; for IC50: 24 h, read-out: ED50 values of cytotoxicity
Experimental: as §1

DU145 = assay: MTT cytotoxicity assay, DU145 prostate; assay type: cell-based; conditions: Homo sapiens; for cytotoxicity at 1000 µM: DU-145, 1.0 mM; for cytotoxicity at 1000 µM / cytotoxicity at 2500 µM / cytotoxicity at 4000 µM / cytotoxicity at 5000 µM / cytotoxicity at 10000 µM: read-out: Percent cytotoxicity; for cytotoxicity at 2500 µM: DU-145, 2.5 mM; for cytotoxicity at 4000 µM: DU-145, 4 mM; for cytotoxicity at 5000 µM: DU-145, 5 mM; for cytotoxicity at 10000 µM: DU-145, 10 mM; for IC50: DU-145, 24 h, read-out: ED50 values of cytotoxicity
Experimental: as §1

[1] = PA 1 Ovary, read-out: Percent cytotoxicity

## COC(=O)C1CCC(=O)N1C(OC(C)=O)C(C)=O (centres unmarked) [MGC-4, N-(1-acetoxy-2-ketopropyl)-methylpyroglutamate]
Hep2
  IC50: 3200 ± 800 µM
Swiss albino mice
  safe dose: 100 mg
KB
  IC50: 1550 ± 300 µM
L132
  cytotoxicity at 1000 µM: 0%
  cytotoxicity at 2500 µM: 0%
  cytotoxicity at 4000 µM: 0%
  cytotoxicity at 5000 µM: 4.9 ± 0.6%
  cytotoxicity at 10000 µM: 37.9 ± 3.5%
  IC50: > 5000 µM
293
  IC50: 1400 ± 100 µM
INT 407
  IC50: 2300 ± 1100 µM
PA 1
  IC50: 1600 ± 200 µM
PA 1; PA 1 Ovary, 1.0 mM, read-out: Percent cytotoxicity
  cytotoxicity at 1000 µM: 28.9 ± 3.2%
PA 1; [1]
  cytotoxicity at 2500 µM: 67.9 ± 4.9%
  cytotoxicity at 4000 µM: 87.9 ± 6.4%
  cytotoxicity at 5000 µM: 88.6 ± 6.9%
  cytotoxicity at 10000 µM: 88 ± 6.9%
MCF7
  IC50: > 5000 µM
  cytotoxicity at 1000 µM: 0%
  cytotoxicity at 2500 µM: 0%
  cytotoxicity at 4000 µM: 3.8 ± 0.4%
  cytotoxicity at 5000 µM: 23.8 ± 0.8%
  cytotoxicity at 10000 µM: 31.9 ± 2.9%
U87MG
  IC50: 2400 ± 500 µM
Miapaca2
  cytotoxicity at 1000 µM: 0%
  cytotoxicity at 2500 µM: 3.9 ± 0.5%
  cytotoxicity at 4000 µM: 46.8 ± 4.9%
  cytotoxicity at 5000 µM: 57.9 ± 5.9%
  cytotoxicity at 10000 µM: 79.4 ± 4.8%
  IC50: 4200 ± 1100 µM
MOLT 4
  IC50: 1500 ± 200 µM
  cytotoxicity at 1000 µM: 36.9 ± 3.9%
  cytotoxicity at 2500 µM: 57.9 ± 3.1%
  cytotoxicity at 4000 µM: 78.9 ± 4.9%
  cytotoxicity at 5000 µM: 88.4 ± 7.5%
  cytotoxicity at 10000 µM: 85.9 ± 7.3%
PTC
  cytotoxicity at 1000 µM: 23.9 ± 3%
  cytotoxicity at 2500 µM: 39 ± 5.2%
  cytotoxicity at 4000 µM: 56.9 ± 5.9%
  cytotoxicity at 5000 µM: 84.2 ± 7.4%
  cytotoxicity at 10000 µM: 87.3 ± 6%
  IC50: 3800 ± 1100 µM
DU145
  cytotoxicity at 1000 µM: 28.9 ± 4.2%
  cytotoxicity at 2500 µM: 58.9 ± 4.9%
  cytotoxicity at 4000 µM: 82.1 ± 7.3%
  cytotoxicity at 5000 µM: 85.6 ± 7.3%
  cytotoxicity at 10000 µM: 87.9 ± 7.3%
  IC50: 1800 ± 300 µM

## CCCCOC(=O)C1CCC(=O)N1C(O)C(C)=O (centres unmarked) [MGC-2, N-(1-hydroxy-2-ketopropyl)-butylpyroglutamate]
Hep2
  IC50: 2000 ± 300 µM
Swiss albino mice
  safe dose: 75 mg
KB
  IC50: 2600 ± 500 µM
L132
  cytotoxicity at 1000 µM: 34.8%
  cytotoxicity at 2500 µM: 58.5 ± 3.6%
  cytotoxicity at 4000 µM: 62.9 ± 2.9%
  cytotoxicity at 5000 µM: 87.8 ± 5.8%
  cytotoxicity at 10000 µM: 88.6 ± 3%
  IC50: 1900 ± 800 µM
293
  IC50: 2000 ± 800 µM
INT 407
  IC50: 2700 ± 800 µM
PA 1
  IC50: 1200 ± 200 µM
PA 1; [1]
  cytotoxicity at 2500 µM: 57.9 ± 4.5%
  cytotoxicity at 4000 µM: 67.9 ± 5.4%
  cytotoxicity at 5000 µM: 84.9 ± 4.8%
  cytotoxicity at 10000 µM: 87.9 ± 6.3%
MCF7
  IC50: 2500 ± 400 µM
  cytotoxicity at 1000 µM: 34.7%
  cytotoxicity at 2500 µM: 50.6 ± 4.1%
  cytotoxicity at 4000 µM: 57.9 ± 4.8%
  cytotoxicity at 5000 µM: 67.9 ± 4%
  cytotoxicity at 10000 µM: 78.9 ± 5.2%
U87MG
  IC50: 3150 ± 1100 µM
Miapaca2
  cytotoxicity at 1000 µM: 34.8%
  cytotoxicity at 2500 µM: 64.9 ± 5.9%
  cytotoxicity at 4000 µM: 74.9 ± 3.8%
  cytotoxicity at 5000 µM: 76.9 ± 4%
  cytotoxicity at 10000 µM: 84.9 ± 6.3%
  IC50: 1700 ± 600 µM
MOLT 4
  IC50: < 1000 µM
  cytotoxicity at 1000 µM: 75.9%
  cytotoxicity at 2500 µM: 85.9 ± 6.3%
  cytotoxicity at 4000 µM: 87.8 ± 5%
  cytotoxicity at 5000 µM: 88.2 ± 5.9%
  cytotoxicity at 10000 µM: 90.2 ± 7.2%
PTC
  cytotoxicity at 1000 µM: 45.8%
  cytotoxicity at 2500 µM: 68.9 ± 5.3%
  cytotoxicity at 4000 µM: 85.9 ± 6.2%
  cytotoxicity at 5000 µM: 88.8 ± 5.3%
  cytotoxicity at 10000 µM: 86.9 ± 5%
  IC50: 1600 ± 100 µM
DU145
  cytotoxicity at 1000 µM: 43.9%
  cytotoxicity at 2500 µM: 53.9 ± 3.8%
  cytotoxicity at 4000 µM: 58.9 ± 4.3%
  cytotoxicity at 5000 µM: 67.9 ± 5.2%
  cytotoxicity at 10000 µM: 86.9 ± 6.9%
  IC50: 1600 ± 100 µM
